Article PMC5439695 (PLoS ONE, 2017)
Like-named read-outs stand apart in the source and are kept apart here.

Assays:
HEK293 cells [1] = assay: cells; conditions: Homo sapiens
HEK293 cells [2] = assay: cells; conditions: Homo sapiens; remark: listed apart in the source
[3] = test system: HEK293 and HepG2 cell lines; conditions: any activity in any time point/assay
HepG2 cells [4] = assay: CellTox Green Cytotoxicity Assay (flor) in HepG2, HepG2[flor]; type: cell-based, human; conditions: HepG2 flor; for EC50: Homo sapiens, given as negative log-scale values;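 as to hepg2 flor emax 0: percent activity versus DMSO-only wells with baseline rescaled to 0%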;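 as to hepg2 flor emax 40: percent activity versus DMSO-only wells with baseline rescaled to 0%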
HepG2 cells [5] = assay: cells; conditions: Homo sapiens
HepG2 cells [6] = conditions: HepG2 glo
HEK293 cells [7] = conditions: HEK293 glo
HEK293 cells [8] = conditions: HEK293 flor

O=S1(=O)OC(c2ccc(O)cc2)(c2ccc(O)cc2)c2ccccc21 [Phenol red]
EC50 (HEK293 cells [1]; HEK293, read-out: hek293_glo_ec50_0): 25.6 µM | EC50 (HEK293 cells [1]; HEK293, read-out: hek293_glo_ec50_8): 25.6 µM | EC50 (HEK293 cells [1]; HEK293, read-out: hek293_glo_ec50_16): 25.6 µM | EC50 (HEK293 cells [1]; HEK293, read-out: hek293_glo_ec50_24): > 38.3 µM | EC50 (HEK293 cells [1]; HEK293, read-out: hek293_glo_ec50_32): > 38.3 µM | EC50 (HEK293 cells [1]; HEK293, read-out: hek293_glo_ec50_40): > 38.3 µM | EC50 (HEK293 cells [2]; HEK293, read-out: hek293_flor_ec50_0): > 38.3 µM | EC50 (HEK293 cells [2]; HEK293, read-out: hek293_flor_ec50_8): > 38.3 µM | EC50 (HEK293 cells [2]; HEK293, read-out: hek293_flor_ec50_16): > 38.3 µM | EC50 (HEK293 cells [2]; HEK293, read-out: hek293_flor_ec50_24): > 38.3 µM | EC50 (HEK293 cells [2]; HEK293, read-out: hek293_flor_ec50_32): > 38.3 µM | EC50 (HEK293 cells [2]; HEK293, read-out: hek293_flor_ec50_40): > 38.3 µM | information [3]: 1 | hepg2_flor_auc (HepG2 cells [4]): 0 | hepg2_flor_time (HepG2 cells [4]): 48 | hepg2_flor_bin (HepG2 cells [4]; kinetics bin): inactive | hepg2_flor_emax_0 (HepG2 cells [4]; time point 0): 0 | hepg2_flor_pod_0 (HepG2 cells [4]; time point 0): -4.417 | hepg2_flor_wauc_0 (HepG2 cells [4]; time point 0): 0 | hepg2_flor_emax_8 (HepG2 cells [4]; time point 8): 0 | hepg2_flor_pod_8 (HepG2 cells [4]; time point 8): -4.417 | hepg2_flor_wauc_8 (HepG2 cells [4]; time point 8): 0 | hepg2_flor_emax_16 (HepG2 cells [4]; time point 16): 0 | hepg2_flor_pod_16 (HepG2 cells [4]; time point 16): -4.417 | hepg2_flor_wauc_16 (HepG2 cells [4]; time point 16): 0 | hepg2_flor_emax_24 (HepG2 cells [4]; time point 24): 0 | hepg2_flor_pod_24 (HepG2 cells [4]; time point 24): -4.417 | hepg2_flor_wauc_24 (HepG2 cells [4]; time point 24): 0 | hepg2_flor_emax_32 (HepG2 cells [4]; time point 32): 0 | hepg2_flor_pod_32 (HepG2 cells [4]; time point 32): -4.417 | hepg2_flor_wauc_32 (HepG2 cells [4]; time point 32): 0 | hepg2_flor_emax_40 (HepG2 cells [4]; time point 40): 0 | hepg2_flor_pod_40 (HepG2 cells [4]; time point 40): -4.417 | hepg2_flor_wauc_40 (HepG2 cells [4]; time point 40): 0 | EC50 (HepG2 cells [4]; time point 0, read-out: hepg2_flor_ec50_0): > 38.3 µM | EC50 (HepG2 cells [4]; time point 8, read-out: hepg2_flor_ec50_8): > 38.3 µM | EC50 (HepG2 cells [4]; time point 16, read-out: hepg2_flor_ec50_16): > 38.3 µM | EC50 (HepG2 cells [4]; time point 24, read-out: hepg2_flor_ec50_24): > 38.3 µM | EC50 (HepG2 cells [4]; time point 32, read-out: hepg2_flor_ec50_32): > 38.3 µM | EC50 (HepG2 cells [4]; time point 40, read-out: hepg2_flor_ec50_40): > 38.3 µM | EC50 (HepG2 cells [5]; HepG2, read-out: hepg2_glo_ec50_0): 25.6 µM | EC50 (HepG2 cells [5]; HepG2, read-out: hepg2_glo_ec50_8): > 38.3 µM | EC50 (HepG2 cells [5]; HepG2, read-out: hepg2_glo_ec50_16): > 38.3 µM | EC50 (HepG2 cells [5]; HepG2, read-out: hepg2_glo_ec50_24): > 38.3 µM | EC50 (HepG2 cells [5]; HepG2, read-out: hepg2_glo_ec50_32): > 38.3 µM | EC50 (HepG2 cells [5]; HepG2, read-out: hepg2_glo_ec50_40): > 38.3 µM | hepg2_glo_auc (HepG2 cells [6]): 0.5829 | hepg2_glo_bin (HepG2 cells [6]; kinetics bin): inconclusive | hepg2_glo_emax_0 (HepG2 cells [6]; time point 0): -25.8612 | hepg2_glo_pod_0 (HepG2 cells [6]; time point 0): -4.428 | hepg2_glo_wauc_0 (HepG2 cells [6]; time point 0): 0.7068 | hepg2_glo_emax_8 (HepG2 cells [6]; time point 8): 0 | hepg2_glo_pod_8 (HepG2 cells [6]; time point 8): -4.417 | hepg2_glo_wauc_8 (HepG2 cells [6]; time point 8): 0 | hepg2_glo_emax_16 (HepG2 cells [6]; time point 16): 0 | hepg2_glo_pod_16 (HepG2 cells [6]; time point 16): -4.417 | hepg2_glo_wauc_16 (HepG2 cells [6]; time point 16): 0 | hepg2_glo_emax_24 (HepG2 cells [6]; time point 24): 0 | hepg2_glo_pod_24 (HepG2 cells [6]; time point 24): -4.417 | hepg2_glo_wauc_24 (HepG2 cells [6]; time point 24): 0 | hepg2_glo_emax_32 (HepG2 cells [6]; time point 32): 0 | hepg2_glo_pod_32 (HepG2 cells [6]; time point 32): -4.417 | hepg2_glo_wauc_32 (HepG2 cells [6]; time point 32): 0 | hepg2_glo_emax_40 (HepG2 cells [6]; time point 40): 0 | hepg2_glo_pod_40 (HepG2 cells [6]; time point 40): -4.417 | hepg2_glo_wauc_40 (HepG2 cells [6]; time point 40): 0 | hek293_glo_auc (HEK293 cells [7]): 1.203 | hek293_glo_time (HEK293 cells [7]): 40 | hek293_glo_bin (HEK293 cells [7]; kinetics bin): no_cv (no_cv: time > 40) | hek293_glo_emax_0 (HEK293 cells [7]; time point 0): -33.7 | hek293_glo_pod_0 (HEK293 cells [7]; time point 0): -4.507 | hek293_glo_wauc_0 (HEK293 cells [7]; time point 0): 0.8079 | hek293_glo_emax_8 (HEK293 cells [7]; time point 8): -27.7816 | hek293_glo_pod_8 (HEK293 cells [7]; time point 8): -4.452 | hek293_glo_wauc_8 (HEK293 cells [7]; time point 8): 0.7338 | hek293_glo_emax_16 (HEK293 cells [7]; time point 16): -27.6507 | hek293_glo_pod_16 (HEK293 cells [7]; time point 16): -4.4502 | hek293_glo_wauc_16 (HEK293 cells [7]; time point 16): 0.732 | hek293_glo_emax_24 (HEK293 cells [7]; time point 24): 0 | hek293_glo_pod_24 (HEK293 cells [7]; time point 24): -4.417 | hek293_glo_wauc_24 (HEK293 cells [7]; time point 24): 0 | hek293_glo_emax_32 (HEK293 cells [7]; time point 32): 0 | hek293_glo_pod_32 (HEK293 cells [7]; time point 32): -4.417 | hek293_glo_wauc_32 (HEK293 cells [7]; time point 32): 0 | hek293_glo_emax_40 (HEK293 cells [7]; time point 40): 0 | hek293_glo_pod_40 (HEK293 cells [7]; time point 40): -4.417 | hek293_glo_wauc_40 (HEK293 cells [7]; time point 40): 0 | hek293_flor_auc (HEK293 cells [8]): 0 | hek293_flor_time (HEK293 cells [8]): 48 | hek293_flor_bin (HEK293 cells [8]; kinetics bin): inactive | hek293_flor_emax_0 (HEK293 cells [8]; time point 0): 0 | hek293_flor_pod_0 (HEK293 cells [8]; time point 0): -4.417 | hek293_flor_wauc_0 (HEK293 cells [8]; time point 0): 0 | hek293_flor_emax_8 (HEK293 cells [8]; time point 8): 0 | hek293_flor_pod_8 (HEK293 cells [8]; time point 8): -4.417 | hek293_flor_wauc_8 (HEK293 cells [8]; time point 8): 0 | hek293_flor_emax_16 (HEK293 cells [8]; time point 16): 0 | hek293_flor_pod_16 (HEK293 cells [8]; time point 16): -4.417 | hek293_flor_wauc_16 (HEK293 cells [8]; time point 16): 0 | hek293_flor_emax_24 (HEK293 cells [8]; time point 24): 0 | hek293_flor_pod_24 (HEK293 cells [8]; time point 24): -4.417 | hek293_flor_wauc_24 (HEK293 cells [8]; time point 24): 0 | hek293_flor_emax_32 (HEK293 cells [8]; time point 32): 0 | hek293_flor_pod_32 (HEK293 cells [8]; time point 32): -4.417 | hek293_flor_wauc_32 (HEK293 cells [8]; time point 32): 0 | hek293_flor_emax_40 (HEK293 cells [8]; time point 40): 0 | hek293_flor_pod_40 (HEK293 cells [8]; time point 40): -4.417 | hek293_flor_wauc_40 (HEK293 cells [8]; time point 40): 0
